Source: patent US20230322846A9, “NEUROACTIVE STEROIDS AND THEIR METHODS OF USE” (SAGE THERAPEUTICS, INC., priority 2018, published 2023)

Assays:
[1] = target: [35S]-TBPS binding, rat brain cortical membranes; test: Steroid inhibition of [35S]-TBPS binding; conditions: 3 nM [35S]-TBPS, in the presence of 5 mM GABA
In short: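 In the presence of […], compounds (DMSO 0.5% final) competed with 3 nM [35S]-TBPS for Sprague-Dawley rat cortical membranes, pH 7.4 phosphate buffer, 90 min, room temperature. Filtration and scintillation counting; specific binding defined by […]; IC50 and maximal inhibition fitted per experiment, averaged as mean ± SEM.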

[2] = target: human GABAA receptors composed of the α4β3δ subunits (Homo sapiens (Human), UniProt O14764+P28472+P48169); test: α4β3δ SyncroPatch automated patch clamp assay; assay type: cell-based; conditions: for EC50: HEK cells, potentiation of submaximal GABA current, clamped at −120 mV; for α4β3δ EMAX: peak current after GABA+compound divided by peak current after GABA alone
Chain of human GABAA receptors composed of the α4β3δ subunits (P48169 36-554 limits assumed): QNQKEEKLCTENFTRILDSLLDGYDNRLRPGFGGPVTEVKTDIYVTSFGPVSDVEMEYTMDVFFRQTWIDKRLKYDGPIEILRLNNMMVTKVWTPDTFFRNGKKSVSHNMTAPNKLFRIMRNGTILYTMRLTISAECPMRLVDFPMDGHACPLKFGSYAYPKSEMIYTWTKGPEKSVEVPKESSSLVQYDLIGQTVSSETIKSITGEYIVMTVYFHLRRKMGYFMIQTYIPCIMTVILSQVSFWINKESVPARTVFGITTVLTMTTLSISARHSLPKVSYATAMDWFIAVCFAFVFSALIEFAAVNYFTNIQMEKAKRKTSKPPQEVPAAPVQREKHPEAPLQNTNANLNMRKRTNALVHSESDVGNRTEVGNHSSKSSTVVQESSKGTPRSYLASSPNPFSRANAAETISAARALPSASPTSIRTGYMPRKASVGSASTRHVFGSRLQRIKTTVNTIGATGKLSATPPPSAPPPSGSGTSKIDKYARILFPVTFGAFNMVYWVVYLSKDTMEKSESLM
Chain of human GABAA receptors composed of the α4β3δ subunits (P28472 26-473 limits assumed): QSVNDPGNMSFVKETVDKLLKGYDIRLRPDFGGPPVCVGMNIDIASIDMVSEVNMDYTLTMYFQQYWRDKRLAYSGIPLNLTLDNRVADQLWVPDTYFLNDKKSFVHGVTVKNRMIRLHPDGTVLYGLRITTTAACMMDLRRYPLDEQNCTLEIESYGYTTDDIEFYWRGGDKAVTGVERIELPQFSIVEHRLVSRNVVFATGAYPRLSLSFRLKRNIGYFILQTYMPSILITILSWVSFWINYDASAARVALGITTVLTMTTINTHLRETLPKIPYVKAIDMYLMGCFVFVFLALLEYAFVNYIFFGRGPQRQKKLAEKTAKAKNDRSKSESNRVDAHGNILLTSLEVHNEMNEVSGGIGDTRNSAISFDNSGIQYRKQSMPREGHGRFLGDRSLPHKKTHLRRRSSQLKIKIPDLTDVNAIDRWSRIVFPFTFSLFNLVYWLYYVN
Chain of human GABAA receptors composed of the α4β3δ subunits (O14764 17-452 limits assumed): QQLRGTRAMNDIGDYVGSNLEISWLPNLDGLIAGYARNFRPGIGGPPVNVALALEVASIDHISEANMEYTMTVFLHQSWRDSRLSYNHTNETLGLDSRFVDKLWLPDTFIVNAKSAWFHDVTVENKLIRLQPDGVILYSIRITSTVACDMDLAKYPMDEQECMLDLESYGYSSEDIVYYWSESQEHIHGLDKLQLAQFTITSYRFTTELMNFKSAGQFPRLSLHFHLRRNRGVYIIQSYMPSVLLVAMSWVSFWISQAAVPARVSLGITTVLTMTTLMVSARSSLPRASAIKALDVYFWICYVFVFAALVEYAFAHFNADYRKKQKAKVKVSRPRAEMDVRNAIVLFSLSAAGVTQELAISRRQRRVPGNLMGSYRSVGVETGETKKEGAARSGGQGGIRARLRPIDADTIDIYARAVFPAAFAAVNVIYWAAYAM
In short: (§1)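 Whole-cell recordings in HEK cells stably expressing each receptor, held at −120 mV, pH 7.4 extracellular/pH 7.2 KF-based intracellular solution. Submaximal GABA (3-5 μM or 10 μM) applied, then GABA plus compound at 0.029-30 μM (six concentrations, n=8-12 cells). Effect = peak current ratio GABA+compound/GABA alone; EC50 and Emax from concentration means.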

[3] = target: human GABAA receptors composed of the α1β2γ2 subunits (Homo sapiens (Human), UniProt P14867+P18507+P47870); test: α1β2γ2 SyncroPatch automated patch clamp assay; assay type: cell-based; conditions: for EC50: HEK cells, potentiation of submaximal GABA current, clamped at −120 mV; for α1β2γ2 EMAX: peak current after GABA+compound divided by peak current after GABA alone
Chain of human GABAA receptors composed of the α1β2γ2 subunits (P14867 28-456 limits assumed): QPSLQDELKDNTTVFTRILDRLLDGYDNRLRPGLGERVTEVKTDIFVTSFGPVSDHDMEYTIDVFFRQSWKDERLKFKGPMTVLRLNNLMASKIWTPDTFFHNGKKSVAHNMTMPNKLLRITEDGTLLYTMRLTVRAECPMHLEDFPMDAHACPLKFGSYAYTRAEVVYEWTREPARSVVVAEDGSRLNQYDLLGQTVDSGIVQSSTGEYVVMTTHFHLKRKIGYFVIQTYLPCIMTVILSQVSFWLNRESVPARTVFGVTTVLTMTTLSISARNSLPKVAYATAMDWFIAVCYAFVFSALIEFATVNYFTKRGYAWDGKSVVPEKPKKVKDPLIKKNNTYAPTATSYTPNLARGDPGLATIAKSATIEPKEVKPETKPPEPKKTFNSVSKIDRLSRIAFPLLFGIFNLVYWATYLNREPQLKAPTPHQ
Chain of human GABAA receptors composed of the α1β2γ2 subunits (P47870 25-512 limits assumed): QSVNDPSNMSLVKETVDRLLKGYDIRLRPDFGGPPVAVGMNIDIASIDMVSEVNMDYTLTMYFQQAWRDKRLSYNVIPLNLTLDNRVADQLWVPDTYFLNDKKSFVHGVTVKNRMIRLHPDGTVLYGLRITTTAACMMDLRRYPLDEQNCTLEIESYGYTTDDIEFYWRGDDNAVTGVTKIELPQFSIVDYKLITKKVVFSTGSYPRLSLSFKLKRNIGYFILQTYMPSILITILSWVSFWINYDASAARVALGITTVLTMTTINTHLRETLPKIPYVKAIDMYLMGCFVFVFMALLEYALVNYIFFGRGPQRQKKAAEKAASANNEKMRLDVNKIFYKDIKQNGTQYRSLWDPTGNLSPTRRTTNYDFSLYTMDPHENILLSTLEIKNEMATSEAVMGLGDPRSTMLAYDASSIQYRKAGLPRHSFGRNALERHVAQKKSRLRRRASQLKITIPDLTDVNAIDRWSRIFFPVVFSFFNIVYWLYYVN
Chain of human GABAA receptors composed of the α1β2γ2 subunits (P18507 40-475 limits assumed): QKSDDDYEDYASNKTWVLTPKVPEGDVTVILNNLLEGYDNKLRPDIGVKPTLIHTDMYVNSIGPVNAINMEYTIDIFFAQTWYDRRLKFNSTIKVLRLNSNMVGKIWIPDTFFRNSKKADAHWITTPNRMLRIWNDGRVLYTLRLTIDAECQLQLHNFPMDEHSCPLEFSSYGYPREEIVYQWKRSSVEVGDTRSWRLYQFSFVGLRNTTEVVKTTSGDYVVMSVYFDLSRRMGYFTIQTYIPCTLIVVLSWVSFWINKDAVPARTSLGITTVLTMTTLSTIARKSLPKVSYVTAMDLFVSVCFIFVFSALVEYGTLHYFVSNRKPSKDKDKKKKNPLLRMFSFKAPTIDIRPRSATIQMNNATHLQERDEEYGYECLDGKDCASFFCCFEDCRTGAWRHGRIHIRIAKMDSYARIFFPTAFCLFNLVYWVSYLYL
In short: as §1

Compound | IC50 [1] [nM] | EC50 [2] [nM] | α4β3δ EMAX [2] | EC50 [3] [nM] | α1β2γ2 EMAX [3]
CCC[C@@]1(O)CC[C@H]2[C@H](CC[C@@H]3[C@@H]2CC[C@]2(C)[C@@H]([C@@H](C)Cc4ccc(C#N)nc4)CC[C@@H]32)C1 [Example 401, 5-((S)-2-((3R,5R,8R,9R,10S,13R,14S,17R)-3-hydroxy-13-methyl-3-propylhexadecahydro-1H-cyclopenta[a]phenanthren-17-yl)propyl)picolinonitrile] | < 100 | ≥ 1000 | A (A indicates an Emax response <30) | ≥ 1000 | C (C indicates an Emax response ≥10)
COC[C@@]1(O)CC[C@H]2[C@H](CC[C@@H]3[C@@H]2CC[C@]2(C)[C@@H]([C@H](C)Cc4ccc(C#N)nc4)CC[C@@H]32)C1 [Example 405, 5-((R)-2-((3R,5R,8R,9R,10S,13R,14S,17R)-3-hydroxy-3-(methoxymethyl)-13-methylhexadecahydro-1H-cyclopenta[a]phenanthren-17-yl)propyl)picolinonitrile] | < 100 | < 200 | B (B indicates an Emax response 30 to <45) | ≥ 1000 | C (C indicates an Emax response ≥10)
C[C@H](Cc1cncc(C#N)c1)[C@H]1CC[C@H]2[C@@H]3CC[C@@H]4C[C@](C)(O)CC[C@@H]4[C@H]3CC[C@]12C [Example 406, 5-((R)-2-((3R,5R,8R,9R,10S,13R,14S,17R)-3-hydroxy-3,13-dimethylhexadecahydro-1H-cyclopenta[a]phenanthren-17-yl)propyl)nicotinonitrile] | < 100 | < 200 | B (B indicates an Emax response 30 to <45) | < 200 | A (A indicates an Emax response <8)
C[C@@H](Cc1cncc(C#N)c1)[C@H]1CC[C@H]2[C@@H]3CC[C@@H]4C[C@](C)(O)CC[C@@H]4[C@H]3CC[C@]12C [Example 407, 5-((S)-2-((3R,5R,8R,9R,10S,13R,14S,17R)-3-hydroxy-3,13-dimethylhexadecahydro-1H-cyclopenta[a]phenanthren-17-yl)propyl)nicotinonitrile] | < 100 | ≥ 1000 | C (C indicates an Emax response ≥45) | < 200 | C (C indicates an Emax response ≥10)
CCOC[C@@]1(O)CC[C@H]2[C@H](CC[C@@H]3[C@@H]2CC[C@]2(C)[C@@H]([C@@H](C)Cc4cccc(C#N)n4)CC[C@@H]32)C1 [Example 413] | < 100 | < 200 | B (B indicates an Emax response 30 to <45) | < 200 | C (C indicates an Emax response ≥10)
Cc1cnc(C[C@H](C)[C@H]2CC[C@H]3[C@@H]4CC[C@@H]5C[C@](C)(O)CC[C@@H]5[C@H]4CC[C@]23C)s1 [Example 430] | 100 to 1000 | < 200 | A (A indicates an Emax response <30) | 200 to 1000 | B (B indicates an Emax response 8 to <10)
C[C@H](Cc1nccc(C#N)n1)[C@H]1CC[C@H]2[C@@H]3CC[C@@H]4C[C@](C)(O)CC[C@@H]4[C@H]3CC[C@]12C [Example 436] | 100 to 1000 | ≥ 1000 | B (B indicates an Emax response 30 to <45) | 200 to 1000 | A (A indicates an Emax response <8)
Cc1cnc(C[C@@H](C)[C@H]2CC[C@H]3[C@@H]4CC[C@@H]5C[C@](C)(O)CC[C@@H]5[C@H]4CC[C@]23C)nc1 [Example 438] | 100 to 1000 | ≥ 1000 | B (B indicates an Emax response 30 to <45) | 200 to 1000 | A (A indicates an Emax response <8)
Cc1cnc(C[C@H](C)[C@H]2CC[C@H]3[C@@H]4CC[C@@H]5C[C@](C)(O)CC[C@@H]5[C@H]4CC[C@]23C)cn1 [Example 439] | < 100 | < 200 | C (C indicates an Emax response ≥45) | < 200 | C (C indicates an Emax response ≥10)
C[C@@H](Cc1ccc(C(F)(F)F)nc1)[C@H]1CC[C@H]2[C@@H]3CC[C@@H]4C[C@](C)(O)CC[C@@H]4[C@H]3CC[C@]12C [Example 443] | < 100 | < 200 | B (B indicates an Emax response 30 to <45) | < 200 | C (C indicates an Emax response ≥10)
C[C@@H](Cc1nc(C(F)(F)F)cs1)[C@H]1CC[C@H]2[C@@H]3CC[C@@H]4C[C@](C)(O)CC[C@]4(C)[C@H]3CC[C@]12C [Example 453] | < 100 | < 200 | A (A indicates an Emax response <30) | 200 to 1000 | A (A indicates an Emax response <8)
CCOC[C@@]1(O)CC[C@H]2[C@H](CC[C@@H]3[C@@H]2CC[C@]2(C)[C@@H]([C@H](CC)Cn4ccc(C#N)n4)CC[C@@H]32)C1 [Example 499, 1-((S)-2-((3R,5R,8R,9R,10S,13S,14S,17R)-3-(ethoxymethyl)-3-hydroxy-13-methylhexadecahydro-1H-cyclopenta[a]phenanthren-17-yl)butyl)-1H-pyrazole-3-carbonitrile] | < 100 | < 200 | A (A indicates an Emax response <30) | < 200 | A (A indicates an Emax response <8)
